For 87 molecules, IC50 results are on record in PubChem BioAssay AID651733 (The Scripps Research Institute Molecular Screening Center, 2012).

For orientation: IC50 means the concentration needed to halve the response being measured.

SMILES strings stand for the structures. Where “and” joins values, the source holds several entries; their conditions need not be identical. Identical values can stand only once. Calls of active or inactive are those of the source. How the calls were made is not given here. Where only a bound is given, the exact number is not on record here.

In the assay the target is Perilipin-5 (Homo sapiens) + 1-acylglycerol-3-phosphate O-acyltransferase ABHD5 (Homo sapiens) (UniProt Q00G26+Q8WTS1). Nature of the assay: ABHD5-PLIN5 interaction inhibitors, dose response, cell lysate, luminescence, proteins expressed in HEK293T (AID 651733).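 Further: split Gaussia princeps luciferase complementation between ABHD5 and MLDP fusion proteins.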
Perilipin-5 (Homo sapiens) + 1-acylglycerol-3-phosphate O-acyltransferase ABHD5 (Homo sapiens), sequence (Q00G26 whole entry, looked up, the tested form may be a part): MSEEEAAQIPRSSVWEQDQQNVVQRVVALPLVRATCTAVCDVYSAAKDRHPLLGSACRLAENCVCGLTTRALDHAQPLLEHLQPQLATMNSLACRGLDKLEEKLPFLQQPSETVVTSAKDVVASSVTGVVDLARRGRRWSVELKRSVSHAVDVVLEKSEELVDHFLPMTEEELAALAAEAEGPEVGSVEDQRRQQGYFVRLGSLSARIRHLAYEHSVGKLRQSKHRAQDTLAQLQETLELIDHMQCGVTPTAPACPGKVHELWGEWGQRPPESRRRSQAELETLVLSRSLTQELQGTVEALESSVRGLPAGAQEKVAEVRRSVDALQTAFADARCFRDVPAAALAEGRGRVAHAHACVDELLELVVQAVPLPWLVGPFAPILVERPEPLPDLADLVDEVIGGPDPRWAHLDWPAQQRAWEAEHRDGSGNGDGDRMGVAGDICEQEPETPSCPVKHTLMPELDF
Perilipin-5 (Homo sapiens) + 1-acylglycerol-3-phosphate O-acyltransferase ABHD5 (Homo sapiens), sequence (Q8WTS1 whole entry, looked up, the tested form may be a part): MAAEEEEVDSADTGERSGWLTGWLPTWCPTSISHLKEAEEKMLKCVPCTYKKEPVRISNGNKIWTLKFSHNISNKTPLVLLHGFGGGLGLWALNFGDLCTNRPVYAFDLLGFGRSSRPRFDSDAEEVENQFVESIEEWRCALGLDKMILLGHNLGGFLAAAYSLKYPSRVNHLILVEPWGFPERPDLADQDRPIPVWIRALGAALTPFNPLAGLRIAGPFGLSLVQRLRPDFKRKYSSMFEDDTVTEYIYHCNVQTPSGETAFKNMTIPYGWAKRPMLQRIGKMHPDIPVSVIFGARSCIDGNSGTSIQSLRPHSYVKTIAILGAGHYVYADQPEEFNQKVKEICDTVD
With `CSc1nnc(NC(=O)c2nc(S(=O)(=O)Cc3ccccc3F)ncc2Cl)s1`, the IC50 was 3.66 µM.

With `O=C(NC1CCCCC1)C(c1ccccc1)n1c(=O)c(-c2ccco2)nc2ccccc21` (configuration not stated), the IC50 was 1.94 µM. In the case of `O=C(NC1CCCCC1)C(c1ccc(C(F)(F)F)cc1)n1c(=O)c(-c2ccco2)nc2ccccc21` (configuration not stated), the half-maximal inhibitory concentration (IC50) is 3.81 µM. For `CN(C)CCCN(C(=O)CCc1ccccc1)c1nc2ccc(Br)cc2s1`, the IC50 result is “inactive”.

Consider `CCSc1nnc(NC(=O)c2nc(S(=O)(=O)Cc3ccc(F)cc3)ncc2Cl)s1`, for which the half-inhibitory concentration (IC50) is 3.78 µM. With `Cc1ccc(C)c(/C=C/C(=O)c2ccccc(=O)c2O)c1` the figure was 5.69 µM.

In the case of `Cc1ccc(O)c(C(=O)C=Cc2ccccc2)c1`, the IC50 is 2.61 µM. For the molecule `O=C(NC1CCCCC1)C(c1cccc2ccccc12)n1c(=O)c(-c2ccco2)nc2ccccc21` (configuration not stated), the IC50 was 2.33 µM. `CCCc1nnc(NC(=O)c2nc(S(=O)(=O)Cc3cccc(C)c3)ncc2Cl)s1`: the IC50 was 4.91 µM. As for `CSc1nnc(NC(=O)c2nc(S(=O)(=O)Cc3ccccc3)ncc2Cl)s1`, the IC50 is 4.13 µM. On to `CCOC(=O)c1c(NC(=O)/C=C/C(=O)O)sc(C)c1-c1ccc(C(C)(C)C)cc1`, for which the IC50 was 5.99 µM. With `CN(C)CCCN(C(=O)CCc1ccccc1)c1nc2ccc(Cl)cc2s1` the entry was “inactive”; with `C=C[C@]1(C)C[C@@H](OC(=O)CSCCN(CC)CC)[C@]2(C)C(C)CC[C@]3(CCC(=O)[C@H]32)[C@@H](C)[C@@H]1O` (some centres not stated), 4.62 µM; with `COc1ccc(C(C(=O)NCc2ccccc2)n2c(=O)c(-c3ccco3)nc3ccccc32)cc1` (configuration not stated), 5.37 µM. With `N#Cc1ncc(Cc2ccccc2)nc1C#N` the entry was “inactive”; with `O=c1[nH]c(C2CCN(S(=O)(=O)c3ccc(S(=O)(=O)NC4CC4)cc3)CC2)nc2c1nnn2Cc1ccc(F)cc1`, 2.39 µM; with `C#CCN(C[C@@H]1[C@@H](OC(=O)NC2CCCC2)[C@@H](OC(=O)NC2CCCC2)Cn2c(=O)ccc(=O)n21)S(=O)(=O)c1ccc(C)cc1`, 7.83 µM.

Turning to `CCOc1cc(/C=C2\CCC/C(=C\c3cc(Cl)c(O)c(OCC)c3)C2=O)cc(Cl)c1O`, the IC50 was 3.55 µM. Take `CN1C(=O)/C(=C/C=C/c2ccco2)C(=O)NC1=S`: the IC50 result was “inactive”. Turning to `O=C(Nc1ccc2c(c1)OCCO2)C(c1ccccc1F)n1c(=O)c(-c2ccco2)nc2ccccc21` (configuration not stated), the IC50 result was “inactive”.

In the case of `CCCCCNC(=O)C(c1cc2ccccc2o1)n1c(=O)c(-c2ccco2)nc2ccccc21` (configuration not stated), the IC50 was 3.08 µM. With `COc1cc(C(C)=O)ccc1OCc1cn(CC(=O)c2ccc(O)cc2)nn1` the figure was 5.81 µM; with `O=C(NCc1ccccc1)C(c1cccc2ccccc12)n1c(=O)c(-c2ccco2)nc2ccccc21` (configuration not stated), 4.2 µM. With `O=C1C(=O)c2c(C(=O)c3ccccc3)coc2-c2ccccc21` the figure was 5.97 µM; with `Cc1cccc(C)c1NC(=O)C(c1ccccc1F)n1c(=O)c(-c2ccco2)nc2ccccc21` (configuration not stated), 5.65 µM; with `O=C(Cn1c(=O)n(Cc2ccco2)c(=O)c2c3c(sc21)CCCC3)Nc1ccccc1`, “inactive”.

Regarding `Cc1cccc(C)c1NC(=O)C(c1ccc(C#N)cc1)n1c(=O)c(-c2ccco2)nc2ccccc21` (configuration not stated), the IC50 is 3.4 µM. Then `CCCCCNC(=O)C(c1ccc(C(F)(F)F)cc1)n1c(=O)c(-c2ccco2)nc2ccccc21` (configuration not stated), with 3.44 µM; and `COc1ccc(C)c2sc(N(CCN(C)C)C(=O)/C=C/c3cccs3)nc12`, with > 13.3 µM (inactive); and `CC(C)(C)NC(=O)C(c1ccc(-c2ccccc2)cc1)n1c(=O)c(-c2ccco2)nc2ccccc21` (configuration not stated), with 2.56 µM.

For the molecule `CC(C)(C)NC(=O)C(c1cccc2ccccc12)n1c(=O)c(-c2ccco2)nc2ccccc21` (configuration not stated), the IC50 is 4.38 µM.

For the molecule `CCCCCNC(=O)C(C1CC1)n1c(=O)c(-c2ccco2)nc2ccccc21` (configuration not stated), the IC50 is 9.99 µM. For the molecule `Cc1cccc(C)c1OCc1cn(CC(=O)c2ccc(O)cc2)nn1`, the IC50 was 5.07 µM. For the molecule `CC(c1nc2ccccc2[nH]1)n1c(=O)c(-c2ccco2)nc2ccccc21` (configuration not stated), the IC50 is 6.21 µM. With `Cc1ccc(C(=O)c2c(C)oc3c2C(=O)C(=O)c2ccccc2-3)cc1`, the IC50 is 5.87 µM.

For the molecule `CC(C)(C)NC(=O)C(C1CC1)n1c(=O)c(-c2ccco2)nc2ccccc21` (configuration not stated), the IC50 is 7.1 µM. Take `CSC(=Nc1ccccc1)N=C(SCc1ccccc1)N(C)C`: the 50% inhibitory concentration (IC50) is 1.19 µM. Turning to `COc1ccc(NC(=O)C(c2ccc(OC)cc2)n2c(=O)c(-c3ccco3)nc3ccccc32)cc1` (configuration not stated), the IC50 entry was “inactive”. Regarding `CCOC(=O)C1CCCN(C(=O)c2cc(Nc3ccc(OC)cc3)nc3ccccc23)C1` (configuration not stated), the IC50 result was “inactive”.

Take `CCCCCNC(=O)C(c1ccc(OC)cc1)n1c(=O)c(-c2ccco2)nc2ccccc21` (configuration not stated): the half-maximal inhibitory concentration (IC50) is 3.4 µM. On to `CC(=O)Nc1ccc(OCc2cn(CC(=O)c3ccc(O)cc3)nn2)cc1`, for which the IC50 is 3.76 µM. Then `CC(C)c1ccc(N2C=Nc3ccc(C(C)C)cc3C2)cc1`, with 7.82 µM.

As for `Cc1ccc2nc3cc([N+](=O)[O-])cc([N+](=O)[O-])c3cc2c1`, the IC50 was 1.09 µM.

As to `CC(C)(C)NC(=O)C(c1ccccc1F)n1c(=O)c(-c2ccco2)nc2ccccc21` (configuration not stated), the IC50 is 4.2 µM. `CN(C)CCOc1ccc(-c2c(-c3ccccc3)sc3ccccc23)cc1`: the IC50 entry is “inactive”. For the molecule `O=C(NCc1ccccc1)C(c1ccc(-c2ccccc2)cc1)n1c(=O)c(-c2ccco2)nc2ccccc21` (configuration not stated), the IC50 is 5.97 µM. Regarding `Cc1ccc(C(=O)/C=C/c2cc(Br)cc(Br)c2O)o1`, the IC50 result is “inactive”.

With `CCSc1ccc2c(c1)N(CCCN1CCN(C)CC1)c1ccccc1S2`, the IC50 is 5.95 µM. As for `CCC(C(=O)OCCN(CC)CC)c1ccccc1` (configuration not stated), the IC50 was 2.67 µM. For the molecule `COC/C=C/C1=CC2=CC(=O)C(C)(OC(=O)C3CCCC3)C(=O)C2=CO1` (configuration not stated), the IC50 is 3.88 µM. With `CCCNC(=O)Nc1ccc2c(c1)N(C)C(=O)c1ccccc1S2` the figure was 4.21 µM; with `Cc1nc(-c2ccccc2)sc1C(=O)/C=C/c1ccccc1`, 2.35 µM. Then `CCCCn1c(SCC(=O)NCc2ccco2)nnc1-c1ccoc1C`, with 6.5 µM; and `CCN1C/C(=C/c2ccc(OC)c(O)c2)C(=O)/C(=C/c2ccc(OC)c(O)c2)C1`, with 7.28 µM.

As to `CC(=O)Cc1cc(O)c2ccccc2c1OC(=O)c1ccc(Br)cc1`, the half-maximal inhibitory concentration (IC50) was 4.1 µM. With `NC(=NCCCCCCN=C(N)/N=C(\N)Nc1ccc(Cl)cc1)/N=C(\N)Nc1ccc(Cl)cc1` the figure was 6 µM and 4.02 µM; with `COc1ccc(-c2cc(N)n(S(=O)(=O)c3c(F)c(F)c(F)c(F)c3F)n2)cc1OC`, “inactive”; with `COc1ccccc1-c1cc(C(=O)NC2CCN(C)CC2)c2ccc(Cl)c(C)c2n1`, “inactive”. With `CCN1/C(=C/C=C/c2oc3ccc(-c4ccccc4)cc3[n+]2CC)Oc2ccc(-c3ccccc3)cc21`, the IC50 is 1.12 µM. Turning to `O=C(/C=C/c1ccc(NC(=O)c2ccccc2-c2ccccc2C(=O)O)cc1)c1ccccc1`, the IC50 is 8.25 µM. `CC1(C)C2CCC(CN=C(N)CSS(=O)(=O)O)C1C2` (configuration not stated): the concentration for half-maximal inhibition (IC50) was 4.64 µM. Regarding `CC(=O)C1=C(c2cccc([N+](=O)[O-])c2)N(C(C)=O)n2c(C)nnc2S1`, the IC50 is 4.3 µM.

With `O=CC1=C(c2ccccc2)Oc2ccccc2O1`, the 50% inhibitory concentration (IC50) is 3.02 µM. As for `CC1=CC(C)(C)Nc2ccc(OC(=O)CN3C(=O)C4CCCCC4C3=O)cc21` (configuration not stated), the IC50 was 4 µM. `CC(=O)OCC1=C(C(=O)O)N2C(=O)C(NC(=O)CCn3nc(C(F)(F)F)c(Br)c3C3CC3)C2SC1` (configuration not stated): the IC50 entry was “inactive”. Take `CCC(C)NC(=O)Nc1ccc2c(c1)N(C)C(=O)c1ccccc1S2` (configuration not stated): the IC50 was 3.6 µM. With `CC1Sc2ccc(S(=O)(=O)N3CCC(C(=O)NCc4ccc(Cl)cc4)CC3)cc2NC1=O` (configuration not stated) the entry was “inactive”; with `CC(C)(C)NC(=O)C(c1ccncc1)n1c(=O)c(-c2ccco2)nc2ccccc21` (configuration not stated), 4.21 µM; with `N#Cc1ccc(C(C(=O)NC2CCCCC2)n2c(=O)c(-c3ccco3)nc3ccccc32)cc1` (configuration not stated), 4.03 µM. Then `Cc1ccc(S(=O)(=O)N2C[C@H]3n4c(=O)ccc(=O)n4C[C@H](OC(=O)Nc4cccs4)[C@@]3(O)C2)cc1`, with 8.68 µM; and `O=C(CF)N(O)c1ccc(C=Cc2ccccc2)cc1`, with > 39.9 µM (inactive).

Consider `CCC(c1nc2ccccc2[nH]1)n1c(=O)c(-c2ccco2)nc2ccccc21` (configuration not stated), for which the IC50 was 5.45 µM. Regarding `O=C(NC1CCCCC1)C(c1ccccc1F)n1c(=O)c(-c2ccco2)nc2ccccc21` (configuration not stated), the IC50 is 4.15 µM.

As to `COc1ccc(OCc2cn(CC(=O)c3ccc(O)cc3)nn2)cc1`, the IC50 is 5.67 µM. Regarding `N#Cc1ccc(C(C(=O)Nc2ccc3c(c2)OCCO3)n2c(=O)c(-c3ccco3)nc3ccccc32)cc1` (configuration not stated), the IC50 result was “inactive”. For the molecule `O=C(/C=C/c1ccc2c(c1)OCCCO2)c1ccccc1O`, the IC50 is 5.14 µM.

On to `Cc1oc2c(c1C(=O)c1ccc(Cl)cc1)C(=O)C(=O)c1ccccc1-2`, for which the IC50 is 4.38 µM. Consider `O=C(O)CC(O)(CC(=O)O)C(=O)O`, for which the 50% inhibitory concentration (IC50) was 3.54 µM. Take `C#CCN(C[C@@H]1[C@@H](OC(=O)Nc2cccs2)[C@@H](OC(=O)Nc2cccs2)Cn2c(=O)ccc(=O)n21)S(=O)(=O)c1ccc(C)cc1`: the IC50 is 3.06 µM. As for `CC(C)c1nnc(NC(=O)c2nc(S(=O)(=O)Cc3ccc(F)cc3)ncc2Cl)s1`, the IC50 is 3.45 µM.

As for `CC1=CC(C)(C)Nc2ccc(OC(=O)C(C)N3C(=O)c4ccccc4C3=O)cc21` (configuration not stated), the IC50 is 3.65 µM.

As to `COCCNC(=O)/C(C#N)=C/c1cccc(/C=C(\C#N)C(=O)NCCOC)c1`, the IC50 is 1.09 µM.

For `Cc1cc(C)c(NC(=O)C[N+](C)(C)CC(O)COc2cccc3ccccc23)c(C)c1` (configuration not stated), the concentration for half-maximal inhibition (IC50) was 8.93 µM.

For the molecule `CN(C)CCN(Cc1ccco1)c1ccccn1`, the IC50 is 4.4 µM. For `CC1=CC(C)(C)Nc2ccc(OC(=O)CN3C(=O)CCC3=O)cc21`, the IC50 was 3.21 µM. On to `C#CCOCCOCCOCCNc1nc(N2CCN(C(=O)CCCCCCCCCCNC(=O)[C@@H](CCSC)n3cc(CCO)nn3)CC2)nc(N2CCN(C(=O)CCCCCCCCCCNC(=O)[C@@H]([C@H](C)O)n3cc(C)nn3)CC2)n1`, for which the IC50 entry was “inactive”. Regarding `CCOC(=O)C1C(OC(=O)c2ccccc2)CC2CCC1N2C` (configuration not stated), the half-inhibitory concentration (IC50) is 5.69 µM.
